According to patent publication US9670213B2, “Pteridine ketone derivative and applications thereof as EGFR, BLK, and FLT3 inhibitor” (EAST CHINA UNIVERSITY OF SCIENCE AND TECHNOLOGY, priority 2012, dated 2017):

Legend:
FLT3 = FLT3 (Homo sapiens (Human), UniProt P36888); test: FLT3 kinase activity assay (Caliper); format: biochemical; conditions: read-out: Inhibitory activity on kinase (IC50, nM) FLT3
Protocol: (§1) Preparation of 1× kinase matrix buffer and stop buffer.
(§2) Preparation of compound solution. The compound was dissolved in 100% DMSO to a concentration, which was 50 times of the final highest inhibiting-concentration. 100 μL of the compound solution as said above was transferred into wells of 96-well plate. The above compound solution was sequentially diluted to the final desired concentration. In two blank wells of same 96-well plate, 100 μL of 100% DMSO was added as no-compound and no-kinase control, and this plate was used as the original plate.
(§3) Preparation of intermediate plate. 10 μL of compound solution was transferred from the original plate to another 96-well plate as the intermediate plate; 90 μL of 1× kinase buffer was added into each well of the intermediate plate, and the intermediate plate was shaken for 10 min.
(§4) Preparation of assay plate. 5 μL of solution from each well of intermediate plate was added into a 384-well plate, and repeated controls were set.
(§5) Kinase reaction. 2.5× kinase solution and 2.5× peptide solution were prepared. 2.5× kinase solution was transferred into assay plate. Assay plate comprised 5 μL of the compound solution in 10% DMSO. 10 μL of 2.5× kinase solution was added in each well of 384-well assay plate. […] 2.5× peptide solution was added into each well. After incubated at 28° C. for an appropriate time, 25 μL of stop buffer was added to quench the reaction. Experimental data were collected in Caliper. Curve was fitted.

EGFR-L858R = EGFR-L858R (Homo sapiens (Human), UniProt P00533, L858R); test: In vitro EGFR kinase activity assay (Z'-Lyte); format: biochemical; conditions: read-out: Inhibitory activity on EGFR kinase (IC50, nM) L858R;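 also: Cell-free kinase reaction with peptide substrate and ATP, 1.5 h at room temperature, then development step cleaving non-phosphorylated peptide, 10-point dilution series 0.051–1000 nM, phosphopeptide as 100% phosphorylation control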
Protocol: (§8) Inhibitory effects in vitro of the compounds provided in the present invention on EGFR kinase activity was tested as follows:
(§9) 10 concentration gradients, from 5.1×10^−11 mol/L to 1.0×10^−6 mol/L, were set for all of the compounds to be tested.
(§10) 10 μL of kinase reaction system comprised 2.5 μL of compound solution, 5 μL of Kinase/peptide mixture, and 2.5 μL of ATP solution. 5 μL of phosphopeptide solution was used in place of kinase/peptide mixture as 100% phosphorylation control. […] After thoroughly mixing the solution within the plate, the plate was incubated at room temperature for 1.5 hours. 5 μL of DevelopmentSolution was added into each well, and then the plate was incubated at room temperature for another 1 hour, and non-phosphorylated peptide was cleaved within this period. Finally, the reaction was quenched by adding 5 μL of Stop Reagent. The Plate was measured with EnVision Multilabel Reader (Perkin Elmer). Experimental data were calculated by using GraphPad Prism version 4.0. Each experiment was repeated more than three times.

wild-type EGFR = wild-type EGFR (Homo sapiens (Human), UniProt P00533); test: In vitro EGFR kinase activity assay (Z'-Lyte); format: biochemical; conditions: EGFR WT; read-out: Inhibitory activity on EGFR kinase (IC50, nM) WT;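 also: Ten-point dose series from 5.1×10^−11 to 1.0×10^−6 mol/L, kinase reaction 1.5 h at room temperature, then 1 h development cleaving unphosphorylated peptide, phosphopeptide as 100% phosphorylation control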
Protocol: as §8, §9, §10

BLK = BLK (Homo sapiens (Human), UniProt P51451); test: BLK kinase activity assay (Caliper); format: biochemical; conditions: read-out: Inhibitory activity on kinase (IC50, nM) BLK
Protocol: as §1, §2, §3, §4, §5

EGFR-L858R/T790M = EGFR-L858R/T790M (Homo sapiens (Human), UniProt P00533, L858R/T790M); test: In vitro EGFR kinase activity assay (Z'-Lyte); format: biochemical; conditions: read-out: Inhibitory activity on EGFR kinase (IC50, nM) T790M/L858R;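 also: Cell-free kinase reaction with peptide substrate and ATP, 1.5 h at room temperature, development cleaving unphosphorylated peptide, 10-point dilution 0.051–1000 nM, phosphopeptide as 100% phosphorylation control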
Protocol: as §8, §9, §10

[1] = test system: H1975 (non-small cell lung cancer cells, EGFR L858R/T790M); test: Cell proliferation and growth inhibition analysis; format: cell-based; conditions: Homo sapiens, NCI-H1975, 72 hours, read-out: Inhibitory activity on cell proliferation (IC50, μM) H1975
Protocol: (§6) Cell proliferation was evaluated by MTS assay. Cells were exposed to the process conditions for 72 hours, and the number of cells for each cell line used in the experiment was adjusted according to the absorbance value (absorbance value at 490 nm was 1.3-2.2). 6 concentration gradients (0.1 nM-10 μM) were set for the compounds to be tested, with six parallel controls for each concentration.
(§7) H1975, HCC827, A549, BT474, MCF-7, SK-BR-3 cells were cultured in the corresponding medium. Upon recovery, the cells were passaged at least two times and then used in experiments. Cells in Log phase were trypsinized and resuspended in the medium. H1975 (1000 cells per well), BT474 (1500 cells per well), MCF-7 (1500 cells per well), HCC827 (2000 cells per well), SK-BR-3 (2000 cells per well), A549 (2000 cells per well) were seeded into 96-well plates, the volume was 100 μL, and 6 rows and 7 columns were set. The plate was placed in an incubator at 37° C. of 5% carbon dioxide overnight. Compounds were dissolved in DMSO to obtain the concentration of […], and then gradually diluted to obtain the concentration of compound as […], 0.1 μM, 0.01 μM, 0.001 μM, 0.0001 μM. 2 μL of compound solution was added into 998 μL of medium, and the resulting mixture was thoroughly mixed. 100 μL of mixture was added into 96-well plate. […] After the cells were cultured for 68 hours, 20 μL of MTT (5 mg/mL) was added. After 4 hours, the supernatant was discarded and 150 μL of DMSO was added. The resulting system was shaken for 10 minutes, and the plate was read with Synergy HT (Bio TeK) (OD490). The data was calculated by GraphPad Prism version 4.0, and IC50 was obtained by non-linear regression model using dose-response curve.

[2] = test system: HCC827 (non-small cell lung cancer cells, EGFR del E746-A750); test: Cell proliferation and growth inhibition analysis; format: cell-based; conditions: Homo sapiens, 72 hours, read-out: Inhibitory activity on cell proliferation (IC50, μM) HCC827
Protocol: as §6, §7

BLK, sequence (P51451 whole entry): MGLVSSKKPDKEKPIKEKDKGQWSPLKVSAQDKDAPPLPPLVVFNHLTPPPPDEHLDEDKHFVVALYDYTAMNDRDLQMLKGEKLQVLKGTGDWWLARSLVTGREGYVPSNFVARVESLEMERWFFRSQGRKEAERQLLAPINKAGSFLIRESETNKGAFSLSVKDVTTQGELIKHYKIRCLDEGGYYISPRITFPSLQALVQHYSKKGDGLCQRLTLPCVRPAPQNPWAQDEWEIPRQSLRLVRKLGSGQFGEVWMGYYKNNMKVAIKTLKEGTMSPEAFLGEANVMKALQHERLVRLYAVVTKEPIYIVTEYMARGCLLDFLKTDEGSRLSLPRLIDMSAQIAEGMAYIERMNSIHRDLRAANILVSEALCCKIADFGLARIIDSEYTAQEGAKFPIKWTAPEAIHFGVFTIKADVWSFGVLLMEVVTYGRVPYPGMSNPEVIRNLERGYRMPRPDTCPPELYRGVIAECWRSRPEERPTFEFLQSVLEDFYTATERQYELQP
wild-type EGFR, sequence (P00533 25-1210): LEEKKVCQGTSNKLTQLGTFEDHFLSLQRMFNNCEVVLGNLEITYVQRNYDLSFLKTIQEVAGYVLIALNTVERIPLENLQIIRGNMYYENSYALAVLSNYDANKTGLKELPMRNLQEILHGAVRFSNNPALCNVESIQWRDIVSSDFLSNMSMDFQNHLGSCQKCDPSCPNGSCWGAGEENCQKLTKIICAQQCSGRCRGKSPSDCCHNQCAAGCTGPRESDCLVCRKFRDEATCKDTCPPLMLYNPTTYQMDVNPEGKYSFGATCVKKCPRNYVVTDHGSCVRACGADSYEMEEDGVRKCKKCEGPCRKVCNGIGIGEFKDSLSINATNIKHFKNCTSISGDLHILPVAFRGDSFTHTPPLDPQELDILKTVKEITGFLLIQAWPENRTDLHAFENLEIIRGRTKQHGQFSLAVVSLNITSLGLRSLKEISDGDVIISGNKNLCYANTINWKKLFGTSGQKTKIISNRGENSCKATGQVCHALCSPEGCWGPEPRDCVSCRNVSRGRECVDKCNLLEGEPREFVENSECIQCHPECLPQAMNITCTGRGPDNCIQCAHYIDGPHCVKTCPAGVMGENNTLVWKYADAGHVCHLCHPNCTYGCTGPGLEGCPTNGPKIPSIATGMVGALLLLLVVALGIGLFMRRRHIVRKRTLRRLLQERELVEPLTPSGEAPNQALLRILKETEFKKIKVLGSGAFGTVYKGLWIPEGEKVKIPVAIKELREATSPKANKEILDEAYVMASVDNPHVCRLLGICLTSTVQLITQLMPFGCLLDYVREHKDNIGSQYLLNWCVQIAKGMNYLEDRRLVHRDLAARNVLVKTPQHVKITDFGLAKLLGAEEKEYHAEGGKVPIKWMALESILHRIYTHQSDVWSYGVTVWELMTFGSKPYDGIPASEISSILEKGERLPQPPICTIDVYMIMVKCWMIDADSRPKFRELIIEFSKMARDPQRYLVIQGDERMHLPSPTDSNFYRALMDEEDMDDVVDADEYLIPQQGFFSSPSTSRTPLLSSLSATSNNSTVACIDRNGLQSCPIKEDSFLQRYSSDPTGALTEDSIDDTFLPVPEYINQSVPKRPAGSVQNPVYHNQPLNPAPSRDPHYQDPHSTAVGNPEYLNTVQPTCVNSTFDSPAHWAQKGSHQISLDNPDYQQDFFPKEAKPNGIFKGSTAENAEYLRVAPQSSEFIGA
EGFR-L858R/T790M, sequence (P00533 25-1210 T790M/L858R): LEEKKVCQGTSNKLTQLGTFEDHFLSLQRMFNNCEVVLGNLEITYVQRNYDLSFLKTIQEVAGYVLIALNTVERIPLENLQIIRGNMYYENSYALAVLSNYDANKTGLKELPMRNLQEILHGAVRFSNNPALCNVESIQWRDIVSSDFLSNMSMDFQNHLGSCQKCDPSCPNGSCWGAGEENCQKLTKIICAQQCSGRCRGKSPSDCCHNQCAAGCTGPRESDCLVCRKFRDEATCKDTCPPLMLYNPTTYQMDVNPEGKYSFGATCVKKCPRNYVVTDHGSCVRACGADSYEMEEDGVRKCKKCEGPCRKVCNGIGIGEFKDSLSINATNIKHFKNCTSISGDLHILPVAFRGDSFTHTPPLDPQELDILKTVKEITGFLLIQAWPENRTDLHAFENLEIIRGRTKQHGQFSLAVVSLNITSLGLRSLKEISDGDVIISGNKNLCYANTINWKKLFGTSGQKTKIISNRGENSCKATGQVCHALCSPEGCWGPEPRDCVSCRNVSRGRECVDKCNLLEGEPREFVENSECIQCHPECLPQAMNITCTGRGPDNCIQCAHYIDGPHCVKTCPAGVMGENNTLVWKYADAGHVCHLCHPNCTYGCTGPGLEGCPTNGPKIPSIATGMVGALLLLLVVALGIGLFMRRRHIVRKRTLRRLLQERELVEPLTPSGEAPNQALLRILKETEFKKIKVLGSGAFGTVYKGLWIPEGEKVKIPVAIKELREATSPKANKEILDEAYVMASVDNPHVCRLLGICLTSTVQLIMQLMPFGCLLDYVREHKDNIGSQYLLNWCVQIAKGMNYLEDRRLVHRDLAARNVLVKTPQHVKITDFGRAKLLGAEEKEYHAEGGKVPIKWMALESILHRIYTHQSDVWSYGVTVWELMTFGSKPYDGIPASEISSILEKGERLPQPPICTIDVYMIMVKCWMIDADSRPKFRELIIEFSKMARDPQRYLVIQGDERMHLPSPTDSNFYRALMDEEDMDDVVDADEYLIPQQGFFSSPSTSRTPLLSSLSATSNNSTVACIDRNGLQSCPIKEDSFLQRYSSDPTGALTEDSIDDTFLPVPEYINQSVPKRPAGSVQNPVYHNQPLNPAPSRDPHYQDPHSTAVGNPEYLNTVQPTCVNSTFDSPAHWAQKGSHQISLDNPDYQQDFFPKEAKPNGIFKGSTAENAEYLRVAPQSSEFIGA
FLT3, sequence (P36888 27-993): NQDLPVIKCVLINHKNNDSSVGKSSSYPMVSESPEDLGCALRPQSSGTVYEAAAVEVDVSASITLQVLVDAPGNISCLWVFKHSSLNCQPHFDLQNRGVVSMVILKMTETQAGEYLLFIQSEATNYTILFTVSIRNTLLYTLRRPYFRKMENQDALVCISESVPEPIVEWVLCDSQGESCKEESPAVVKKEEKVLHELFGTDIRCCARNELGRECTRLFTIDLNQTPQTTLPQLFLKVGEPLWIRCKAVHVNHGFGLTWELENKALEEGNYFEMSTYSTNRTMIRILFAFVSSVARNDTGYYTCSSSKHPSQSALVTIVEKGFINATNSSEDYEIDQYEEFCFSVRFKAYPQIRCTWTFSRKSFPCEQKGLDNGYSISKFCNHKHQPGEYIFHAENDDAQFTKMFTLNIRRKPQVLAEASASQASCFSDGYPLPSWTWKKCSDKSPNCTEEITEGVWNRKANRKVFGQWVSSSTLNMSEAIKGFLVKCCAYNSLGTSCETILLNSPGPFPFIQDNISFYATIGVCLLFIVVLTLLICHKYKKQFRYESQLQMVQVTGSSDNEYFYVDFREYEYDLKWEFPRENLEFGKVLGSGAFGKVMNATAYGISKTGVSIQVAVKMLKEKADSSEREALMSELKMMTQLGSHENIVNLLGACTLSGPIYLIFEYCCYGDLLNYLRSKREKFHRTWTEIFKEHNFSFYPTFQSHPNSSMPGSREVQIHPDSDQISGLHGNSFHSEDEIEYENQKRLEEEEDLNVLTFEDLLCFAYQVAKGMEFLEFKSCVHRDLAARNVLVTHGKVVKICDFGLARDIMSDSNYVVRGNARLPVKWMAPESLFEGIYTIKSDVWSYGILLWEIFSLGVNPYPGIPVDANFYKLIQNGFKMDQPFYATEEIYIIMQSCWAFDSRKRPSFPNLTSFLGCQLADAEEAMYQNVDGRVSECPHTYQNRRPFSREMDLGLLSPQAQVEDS
EGFR-L858R, sequence (P00533 25-1210 L858R): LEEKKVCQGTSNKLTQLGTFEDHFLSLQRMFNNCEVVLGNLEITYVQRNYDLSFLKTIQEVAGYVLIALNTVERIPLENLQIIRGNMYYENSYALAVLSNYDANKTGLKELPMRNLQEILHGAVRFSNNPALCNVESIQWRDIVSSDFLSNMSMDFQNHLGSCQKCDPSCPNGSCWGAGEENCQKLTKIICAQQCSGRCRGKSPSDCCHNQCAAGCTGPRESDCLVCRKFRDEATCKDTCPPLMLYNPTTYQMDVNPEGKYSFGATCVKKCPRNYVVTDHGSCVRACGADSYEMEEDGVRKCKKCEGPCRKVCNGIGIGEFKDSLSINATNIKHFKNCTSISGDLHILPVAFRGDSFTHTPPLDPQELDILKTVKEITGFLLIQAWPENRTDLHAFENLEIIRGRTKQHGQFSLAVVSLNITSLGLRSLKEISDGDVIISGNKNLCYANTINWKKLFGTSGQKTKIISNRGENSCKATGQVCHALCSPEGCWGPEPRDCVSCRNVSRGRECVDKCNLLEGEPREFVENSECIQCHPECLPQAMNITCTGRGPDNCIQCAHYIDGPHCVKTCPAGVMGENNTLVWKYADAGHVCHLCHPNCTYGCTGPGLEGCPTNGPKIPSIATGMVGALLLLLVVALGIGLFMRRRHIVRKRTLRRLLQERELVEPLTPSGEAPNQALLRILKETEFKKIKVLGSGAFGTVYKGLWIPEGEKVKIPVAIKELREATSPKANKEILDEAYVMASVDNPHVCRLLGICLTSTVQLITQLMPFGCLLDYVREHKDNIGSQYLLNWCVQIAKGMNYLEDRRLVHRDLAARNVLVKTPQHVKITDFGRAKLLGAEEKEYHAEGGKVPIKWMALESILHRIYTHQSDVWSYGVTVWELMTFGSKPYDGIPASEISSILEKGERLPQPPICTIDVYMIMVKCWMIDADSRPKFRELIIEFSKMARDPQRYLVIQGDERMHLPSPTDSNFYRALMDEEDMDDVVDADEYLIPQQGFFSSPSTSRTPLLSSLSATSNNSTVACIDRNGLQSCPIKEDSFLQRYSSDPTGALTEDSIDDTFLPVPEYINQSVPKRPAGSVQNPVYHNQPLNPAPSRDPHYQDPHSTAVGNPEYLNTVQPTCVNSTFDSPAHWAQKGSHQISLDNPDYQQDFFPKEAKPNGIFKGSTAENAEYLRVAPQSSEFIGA

Row | IC50 (FLT3) [nM] | IC50 (EGFR-L858R) [nM] | IC50 (wild-type EGFR) [nM] | IC50 (BLK) [nM] | IC50 (EGFR-L858R/T790M) [nM] | IC50 [1] [µM] | IC50 [2] [µM] | Compound
1 | 878 | 11.7 | 19.7 | 83 | 5.49 | 0.238 | 0.02 | C=CC(=O)Nc1cccc(-n2c(=O)cnc3cnc(Nc4ccc(N5CCCCC5)cc4)nc32)c1 [Compound 021, N-(3-(7-oxo-2-(4-(1-piperidinyl)phenylamino)-8(7H)-pteridinyl)phenyl) acrylamide]
2 | 119 | 1710 | 2000 | 5660 | 1200 | 3.05 | 0.408 | C=CC(=O)Nc1cccc(Nc2ncc3ncc(=O)n(-c4ccc(OC)cc4)c3n2)c1 [Compound 027, N-(3-(8-(4-methoxyphenyl)-7-oxo-7,8-dihydro-pteridin-2-amino)phenyl) acrylamide]
3 | – | – | – | – | – | 0.039 | 0.014 | C=CC(=O)Nc1cccc(Oc2nc(Nc3ccc(N4CCN(C)CC4)cc3OC)ncc2Cl)c1 [WZ4002, reference compound]
4 | 568 | – | – | 96 | – | – | – | C=CC(=O)Nc1cccc(-n2c(=O)c(C)nc3cnc(Nc4ccc(OC)cc4)nc32)c1 [Compound 026, N-(3-(2-(4-methoxyphenylamino)-6-methyl-7-oxo-8(7H)-pteridin-yl)phenyl) acrylamide]
5 | 1860 | – | – | – | – | 0.437 | – | C=CC(=O)Nc1cccc(-n2c(=O)cnc3cnc(Nc4ccccc4)nc32)c1 [Compound 015, N-(3-(7-oxo-2-(phenylamino)-8(7H)-pteridin-yl)phenyl)acrylamide]
6 | 34 | 18900 | 10600 | 7950 | 3530 | 82.8 | 15.9 | COc1ccc(-n2c(=O)cnc3cnc(Nc4cccc(N)c4)nc32)cc1 [Compound 028, 2-(3-aminophenylamino)-8-(4-methoxyphenyl)-7(8H)-pteridin-one]
7 | 51 | 6380 | 1260 | 796 | 738 | 8.87 | 0.676 | C=CC(=O)Nc1ccc(-n2c(=O)cnc3cnc(Nc4ccc(N5CCN(C)CC5)cc4)nc32)cc1 [Compound 019, N-(4-(2-(4-(4-methyl-1-piperazinyl)-phenylamino)-7-oxo-8(7H)-pteridin-yl)phenyl) acrylamide]
8 | 180 | 376 | 429 | 812 | 229 | 2.88 | 0.466 | C=CC(=O)Nc1ccc(-n2c(=O)cnc3cnc(Nc4ccc(N5CCN(C)CC5)cc4OC)nc32)cc1 [Compound 031]
9 | 3550 | 13.4 | 15.8 | 148 | 5.12 | 6.08 | 0.229 | C=CC(=O)Nc1cccc(-n2c(=O)cnc3cnc(Nc4ccc(NC(C)=O)cc4)nc32)c1 [Compound 024, N-(3-(2-(4-(acetylamino)-phenylamino)-7-oxo-8(7H)-pteridin-yl)phenyl) acrylamide]
10 | 3780 | – | – | 171 | – | – | – | CN(C)C/C=C/C(=O)Nc1cccc(-n2c(=O)cnc3cnc(Nc4ccccc4)nc32)c1 [Compound 013, 4-(dimethylamino)-N-(3-(7-oxo-2-(phenylamino)-8(7H)-pteridin-yl)phenyl)-2-buteneamide]
11 | 1080 | 12.6 | 23.3 | 98 | 5.33 | 0.531 | 0.073 | C=CC(=O)Nc1cccc(-n2c(=O)cnc3cnc(Nc4ccc(N5CCCC5)cc4)nc32)c1 [Compound 022, N-(3-(7-oxo-2-(4-(1-pyrrolidinyl)phenylamino)-8(7H)-pteridin-yl)phenyl) acrylamide]
12 | 2820 | 84.8 | 67 | 156 | 70.3 | 0.82 | 0.163 | C=CC(=O)Nc1cccc(-n2c(=O)cnc3cnc(Nc4ccc(Cl)cc4)nc32)c1 [Compound 017, N-(3-(2-(4-chlorophenylamino)-7-oxo-8(7H)-pteridin-yl)phenyl) acrylamide]
13 | 129 | 26.4 | 16.1 | 7480 | 113 | 77.8 | 68.1 | C=CC(=O)Nc1ccc(-n2c(=O)cnc3cnc(Nc4ccccc4)nc32)cc1 [Compound 014, N-(4-(7-oxo-2-(phenylamino)-8(7H)-pteridin-yl)phenyl) acrylamide]
14 | 160 | 5340 | 5980 | 6320 | 1920 | 18.9 | 4.42 | CN(C)C/C=C/C(=O)Nc1ccc(-n2c(=O)cnc3cnc(Nc4ccccc4)nc32)cc1 [Compound 012, 4-(dimethylamino)-N-(4-(7-oxo-2-(phenylamino)-8(7H)-pteridin-yl)phenyl)-2-buteneamide]
15 | 798 | 5.83 | 7.94 | 41 | 3.02 | 0.216 | 0.017 | C=CC(=O)Nc1cccc(-n2c(=O)cnc3cnc(Nc4ccc(N5CCOCC5)cc4)nc32)c1 [Compound 018, N-(3-(2-(4-morpholinophenylamino)-7-oxo-8(7H)-pteridin-yl)phenyl) acrylamide]
16 | 1790 | 9.64 | 12.7 | 76 | 4.39 | 7.3 | 0.604 | C=CC(=O)Nc1cccc(-n2c(=O)cnc3cnc(Nc4ccc(C(N)=O)cc4)nc32)c1 [Compound 025, 4-(8-(3-acrylamidephenyl)-7-oxo-7,8-dihydropteridinyl-2-amino)benzamide]

Row | Compound | IC50 (FLT3) [nM] | IC50 (EGFR-L858R) [nM] | IC50 (wild-type EGFR) [nM] | IC50 (BLK) [nM] | IC50 (EGFR-L858R/T790M) [nM] | IC50 [1] [µM] | IC50 [2] [µM]
17 | C=CC(=O)Nc1ccc(-n2c(=O)cnc3cnc(Nc4ccc(Cl)cc4)nc32)cc1 [Compound 016, N-(4-(2-(4-chlorophenylamino)-7-oxo-8(7H)-pteridin-yl)phenyl) acrylamide] | 358 | 116 | 7580 | > 10000 | 1490 | 20.8 | 68.7
18 | C=CC(=O)Nc1ccc(Nc2ncc3ncc(=O)n(-c4ccc(OC)cc4)c3n2)cc1 [Compound 029, N-(4-(8-(4-methoxyphenyl)-7-oxo-7,8-dihydro-pteridin-2-amino)phenyl) acrylamide] | 100 | 1320 | > 10000 | > 10000 | > 10000 | 0.953 | 0.543
19 | COc1ccc(-n2c(=O)cnc3cnc(Nc4ccc(N)cc4)nc32)cc1 [Compound 030, 2-(4-aminophenylamino)-8-(4-methoxyphenyl)-7(8H)-pteridin-one] | 43 | 23800 | 3420 | > 10000 | 6750 | 15.3 | 4.65
